Reference: ChEMBL document CHEMBL1201862, “PubChem BioAssay data set” (2004)
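Dose response: 5 concentrations. Exposure: 48 h. Format: 96-well plates. Endpoint: linear interpolation; highest concentration if not reached. GI50 is the concentration that inhibits growth by half.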 Calls of active or inactive are those of the source. Rule as the data show it: active = GI50 up to about 1.1 µM and inactive = higher.

What was measured:
Assay in all cases: NCI-60 cell line screen, 48 h
786-0 = tested on: 786-0
A498 = tested on: A498
COLO 205 = tested on: COLO 205
HL-60 = tested on: HL-60
HT-29 = tested on: HT-29
IGROV-1 = tested on: IGROV-1
K562 = tested on: K562
LOX IMVI = tested on: LOX IMVI
NCI-H460 = tested on: NCI-H460
RPMI-8226 = tested on: RPMI-8226
SF-295 = tested on: SF-295
SF-539 = tested on: SF-539
SNB-19 = tested on: SNB-19
UACC-257 = tested on: UACC-257
UACC-62 = tested on: UACC-62

Measured: GI50

COc1ccc2[nH]c3c(C)c4c(c(C)c3c2c1)CN(C)CC4
inactive: 786-0 14.6 µM | A498 17.9 µM | COLO 205 17.4 µM | HL-60 2.09 µM | HT-29 6.47 µM | IGROV-1 16.6 µM | K562 4.59 µM | LOX IMVI 13.7 µM | NCI-H460 11.6 µM | RPMI-8226 4.69 µM | SF-295 18.8 µM | SF-539 16 µM | SNB-19 17.3 µM | UACC-257 17.7 µM | UACC-62 19.2 µM

O=c1[nH]c(Br)nc2c(Br)c[nH]c12
inactive: 786-0 > 100 µM | A498 > 100 µM | COLO 205 > 100 µM | HL-60 > 100 µM | HT-29 > 100 µM | IGROV-1 > 100 µM | K562 > 100 µM | LOX IMVI > 100 µM | NCI-H460 > 100 µM | RPMI-8226 > 100 µM | SF-295 > 100 µM | SF-539 > 100 µM | SNB-19 > 100 µM | UACC-257 > 100 µM | UACC-62 > 100 µM

Cc1nc(-n2nc(-c3ccccc3)cc2-c2ccccc2)sc1C(=O)CC(=O)C(=O)Nc1ccc(O)cc1
inactive: 786-0 > 100 µM | A498 > 100 µM | COLO 205 > 100 µM | HL-60 > 100 µM | HT-29 > 100 µM | IGROV-1 > 100 µM | K562 > 100 µM | LOX IMVI > 100 µM | RPMI-8226 > 100 µM | SF-295 > 100 µM | SF-539 > 100 µM | SNB-19 > 100 µM | UACC-257 > 100 µM | UACC-62 > 100 µM

CCS(CC)(CC)CC1CCCC2=CCC(P(=O)(c3ccccc3)c3ccccc3)CC21 (stereo not given)
inactive: 786-0 10.9 µM | A498 13.6 µM | COLO 205 17 µM | HL-60 3.31 µM | HT-29 9.12 µM | IGROV-1 9.57 µM | K562 4.09 µM | LOX IMVI 14.7 µM | NCI-H460 10.3 µM | SF-295 3.81 µM | SF-539 13.3 µM | SNB-19 12.9 µM | UACC-257 > 10 µM | UACC-62 3.01 µM

Cc1ccc(S(=O)(=O)Nc2ccccc2C(C)(C)C)cc1
inactive: 786-0 25.5 µM | A498 24 µM | HL-60 16.8 µM | HT-29 16.2 µM | IGROV-1 30.7 µM | K562 18 µM | NCI-H460 18.6 µM | RPMI-8226 18.7 µM | SF-295 13.7 µM | SF-539 17.3 µM | UACC-257 16.1 µM | UACC-62 16.1 µM

O=C1OC(c2ccccc2)=N/C1=C/NC(CO)C(=O)O (stereo not given)
inactive: 786-0 > 100 µM | A498 > 100 µM | COLO 205 > 100 µM | HL-60 > 100 µM | HT-29 > 100 µM | IGROV-1 67.1 µM | K562 > 100 µM | LOX IMVI > 100 µM | NCI-H460 > 100 µM | RPMI-8226 > 100 µM | SF-295 > 100 µM | SF-539 > 100 µM | SNB-19 48.9 µM | UACC-257 > 100 µM | UACC-62 > 100 µM

O=C1OC(=O)C2C1C1(c3ccccc3)OC2(c2ccccc2)c2c(Br)c(Br)c(Br)c(Br)c21 (stereo not given)
inactive: 786-0 > 100 µM | A498 > 100 µM | COLO 205 > 100 µM | HL-60 > 100 µM | HT-29 > 100 µM | IGROV-1 > 100 µM | K562 > 100 µM | LOX IMVI > 100 µM | NCI-H460 > 100 µM | RPMI-8226 > 100 µM | SF-295 > 100 µM | SF-539 > 100 µM | SNB-19 > 100 µM | UACC-257 > 100 µM | UACC-62 > 100 µM

Oc1ccc([Te]CCNCC[Te]c2ccc(O)cc2)cc1
inactive: 786-0 28.7 µM | A498 13.4 µM | COLO 205 7.13 µM | HL-60 5.55 µM | HT-29 15.6 µM | IGROV-1 27.9 µM | K562 10 µM | LOX IMVI 12.5 µM | NCI-H460 4.67 µM | RPMI-8226 16.4 µM | SF-295 4.32 µM | SF-539 > 10 µM | SNB-19 40.9 µM | UACC-257 36 µM | UACC-62 17 µM

O=[N+]([O-])c1ccc(C[P+](c2ccccc2)(c2ccccc2)c2ccccc2)cc1
inactive: 786-0 > 100 µM | A498 > 100 µM | COLO 205 25.4 µM | HL-60 27.2 µM | HT-29 32.9 µM | IGROV-1 25.4 µM | K562 70.8 µM | LOX IMVI 42 µM | NCI-H460 71.3 µM | RPMI-8226 26.2 µM | SF-295 > 100 µM | SF-539 67.8 µM | SNB-19 > 100 µM | UACC-257 16.1 µM | UACC-62 32.1 µM

O=C1c2ccccc2C(=O)c2c(O)c(NCCNCCO)cc(O)c21
inactive: 786-0 3.33 µM | A498 7.26 µM | HL-60 4.69 µM | HT-29 3.23 µM | IGROV-1 1.91 µM | K562 2.75 µM | LOX IMVI 3.73 µM | NCI-H460 3.34 µM | RPMI-8226 3.88 µM | SF-295 10.2 µM | SF-539 4.93 µM | SNB-19 1.75 µM | UACC-257 6.59 µM | UACC-62 11.5 µM

Nc1cc(=O)n(-c2ccccc2)c(=S)n1-c1ccccc1
inactive: 786-0 > 100 µM | A498 > 100 µM | COLO 205 > 100 µM | HT-29 > 100 µM | IGROV-1 > 100 µM | K562 > 100 µM | LOX IMVI > 100 µM | NCI-H460 > 100 µM | RPMI-8226 > 100 µM | SF-295 > 100 µM | SF-539 > 100 µM | SNB-19 > 100 µM | UACC-257 > 100 µM | UACC-62 > 100 µM

COCc1c(CO)cnc(C)c1OC1OC(CO)C(O)C(O)C1O (stereo not given)
inactive: 786-0 > 100 µM | A498 > 100 µM | HT-29 > 100 µM | IGROV-1 > 100 µM | K562 > 100 µM | LOX IMVI > 100 µM | NCI-H460 > 100 µM | RPMI-8226 > 100 µM | SF-295 > 100 µM | SF-539 > 100 µM | SNB-19 > 100 µM | UACC-257 > 100 µM | UACC-62 > 100 µM

Cc1ccc(-n2c3nc(=O)n(C)c(=O)c-3nc3ccccc32)cc1
inactive: 786-0 30.2 µM | A498 26.7 µM | COLO 205 4.47 µM | HL-60 11.1 µM | HT-29 3.54 µM | IGROV-1 31.6 µM | K562 17 µM | LOX IMVI 20.4 µM | NCI-H460 3.33 µM | RPMI-8226 12.5 µM | SF-295 11.2 µM | SF-539 27.8 µM | SNB-19 12.9 µM | UACC-257 12.8 µM | UACC-62 2.3 µM

Nc1nc(OCc2ccccc2)c2nc[nH]c2n1 [6-O-BENZYLGUANINE]
inactive: 786-0 80.7 µM | A498 57.8 µM | COLO 205 124 µM | HL-60 45.7 µM | HT-29 87.3 µM | IGROV-1 64.6 µM | K562 86.5 µM | LOX IMVI 64.6 µM | NCI-H460 67.6 µM | SF-295 121 µM | SF-539 91.4 µM | SNB-19 129 µM | UACC-257 91 µM | UACC-62 44.2 µM
